Measurements published in US5965701A, “Kappa receptor opioid peptides” (priority 1997, dated 1999).
Values joined by “and” are separate entries in the source; they are usually repeats but may differ in a detail not shown here. Equal entries are not always repeated. Where a SMILES comes first, the peptide text is derived from it. [ ]: non-standard residue; d: D form. The star is where a group is joined. dPhe(3,4-Cl2) = N[C@H](Cc1ccc(Cl)c(Cl)c1)C(=O)O; dPhe(4-CH2NH2) = NCc1ccc(C[C@@H](N)C(=O)O)cc1; dPhe(4-Cl) = N[C@H](Cc1ccc(Cl)cc1)C(=O)O; dPhe(4-F) = N[C@H](Cc1ccc(F)cc1)C(=O)O; d2Nal = N[C@H](Cc1ccc2ccccc2c1)C(=O)O; d2Thi = N[C@H](Cc1cccs1)C(=O)O; NH(3-picolyl) = c1cncc(CN*)c1; NH(4-picolyl) = c1cc(CN*)ccn1; N(CH2CH2)2NH = C1CN(*)CCN1; dNle = CCCC[C@@H](N)C(=O)O; Morpholide = C1CN(*)CCO1; Piperidide = C1CCN(*)CC1; NHBn = c1ccc(CN*)cc1; X1 = C1CN(*)CCS1

Legend:
[1] = biological target: T1, cloned human kappa (hKOR) receptor (Homo sapiens, UniProt P41145); assay: biochemical; type: binding; conditions: for μ/κ Ratio (binding affinity for KOR versus MOR): Ki MOR / Ki KOR; for Ki: read-out: Ki KOR
T1 construct: expressed in transfected cells; host or cells: HN9.10 (mouse hippocampal neuroblastoma), stably transfected

conscious male ICR mice = assay: Mouse acetic acid writhing test (WT); type: in vivo; conditions: for WT-ED50: i.v., 5 minutes before acetic acid i.p., writhes over 15 minutes; for % Antinociception 1 hr / % Antinociception 2 hr: submaximal effective dose i.v., percentage of the activity found at -5 min; for % Antinociception 1 hr: 60 min pretreatment; for % Antinociception 2 hr: 120 min pretreatment
Procedure: Selected peptides that are identified in Tables A-G have been further specifically subjected to in vivo testing for determination of duration of action of their opioid properties, and the results are reported in Table H hereinafter. The peptide numbers correspond to those in the earlier tables and the figures with regard to μ/K ratio are simply carried over for reference purposes. The in vivo testing is carried out using a mouse writhing test (WT) that is well-suited for determining the length of duration of antinociceptive biological activity. This test is described in detail in an article by G. A. Bentley et al., Br. J. Phamac., 73:325-332, 1981, and it employs conscious male ICR mice which are purchased from Harlan and which weigh between 20 and 30 grams. The mice are fasted for 12 to 16 hours prior to beginning the test. The nociceptive behavior, i.e. writhing, to be monitored is induced by the intraperitoneal (i.p.) administration of dilute acetic acid. 10 milliliters of 0.6% aqueous acetic acid is used per kg of body weight. Writhing is scored during the 15 minutes following acetic acid administration. In a first step, compounds are tested at 3 to 4 increasing doses, given by intravenous route, and at one unique pretreatment time (-5 minutes before acetic acid injection). […] In a second step, this submaximal effective dose for each specific peptide is administered at various pretreatment times (i.e. -5 minutes, -60 minutes, -120 minutes and -180 minutes) prior to the administration of the acetic acid in order to determine the duration of action. Throughout the test, a control group of mice are used which are administered only the vehicle without the candidate peptide. The number of writhes are counted over a 15-minute period, starting from the time of acetic acid injection, and bioactivity, i.e. antinociception, is expressed as a percentage, and is calculated as follows:
100×(writhes in control group-writhes in treated group)/writhes in
Values higher than 100% indicate greater antinociception than at the beginning of the experiment. It is felt that the opioid peptide should be effective to reduce writhing by at least about 25% at a time of 1 hour to be considered to have long duration of in vivo action.
In addition to using this test to determine duration of antinociceptive activity, it is also used to measure the in vivo biopotency (short term) of the peptide. This value is given in the table under the heading WT-ED50 in milligrams per kg of body weight. The value is a measure of the dosage necessary to reduce the number of writhes in the mouse being tested by 50% (as compared to a control mouse) over a period of 15 minutes.

[2] = biological target: T2, cloned human mu opioid (hMOR) receptor (Homo sapiens, UniProt P35372); assay: Competition binding at cloned hMOR, displacement of 3H-DAMGO; conditions: hMOR stably expressed in HN.9.10 cells, read-out: Ki MOR
T2 construct: expressed in transfected cells; host or cells: HN9.10 (mouse hippocampal neuroblastoma), stably transfected
T2 sequence (P35372 whole entry): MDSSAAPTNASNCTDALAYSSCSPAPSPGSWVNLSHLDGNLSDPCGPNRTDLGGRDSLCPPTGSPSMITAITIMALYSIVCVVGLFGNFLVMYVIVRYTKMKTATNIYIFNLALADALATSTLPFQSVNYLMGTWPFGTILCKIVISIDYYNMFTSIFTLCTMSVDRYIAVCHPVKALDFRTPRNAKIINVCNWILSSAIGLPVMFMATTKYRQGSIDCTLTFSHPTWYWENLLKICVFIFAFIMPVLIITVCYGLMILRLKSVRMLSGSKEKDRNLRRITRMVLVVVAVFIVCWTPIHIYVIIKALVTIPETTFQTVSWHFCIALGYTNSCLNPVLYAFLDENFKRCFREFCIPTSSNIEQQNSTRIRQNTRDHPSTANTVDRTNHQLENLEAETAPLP

T1 sequence (P41145 whole entry): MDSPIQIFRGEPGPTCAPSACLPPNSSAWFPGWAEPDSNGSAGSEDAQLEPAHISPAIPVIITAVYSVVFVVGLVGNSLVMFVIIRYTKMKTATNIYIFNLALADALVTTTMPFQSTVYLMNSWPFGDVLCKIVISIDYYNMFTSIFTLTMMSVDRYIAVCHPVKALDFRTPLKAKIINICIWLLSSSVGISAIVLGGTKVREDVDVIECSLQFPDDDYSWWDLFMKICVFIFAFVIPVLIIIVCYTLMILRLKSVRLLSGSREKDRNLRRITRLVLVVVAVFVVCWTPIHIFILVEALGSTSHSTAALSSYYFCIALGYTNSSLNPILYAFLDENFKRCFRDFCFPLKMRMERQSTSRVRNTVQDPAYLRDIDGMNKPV

“H-D-Phe-D-Phe-D-Nle-D-Har-NH(4Pic) [Peptide 50]” was tested, and the “μ/κ Ratio (binding affinity for KOR versus MOR)” value (“μ/κ Ratio” below) [1] was 9,300.

With “H-D-Phe-D-Phe-D-Nle-D-Har-Mor [Peptide 51]” the “μ/κ Ratio” value [1] was 12,000.

With “H-D-Phe-D-Phe-D-Nle-D-Arg-Ecp [Peptide 42]” the “μ/κ Ratio” value [1] was 27,000, the WT-ED50 (conscious male ICR mice) was 0.06 mg/kg and the “% Antinociception 1 hr” value (conscious male ICR mice) was 45.3%. The “% Antinociception 2 hr” value (conscious male ICR mice) was 29.4%.

With “H-D-Phe-D-Phe-D-Hle-D-Arg-NH(4Pic) [Peptide 45]” the “μ/κ Ratio” value [1] was 11,000.

“H-D-Phe-D-Phe-D-CML-D-Oro-Mor [Peptide 46]” was tested, and the “μ/κ Ratio” value [1] was 14,000.

For “H-D-Phe-D-Phe-D-Lcu-D-Lys-NH(4Pic) [Peptide 47]”, the “μ/κ Ratio” value [1] was 30,000.

In the case of `CCCC[C@@H](NC(=O)[C@@H](Cc1ccccc1)NC(=O)[C@H](N)Cc1ccccc1)C(=O)N[C@H](Cc1ccc(CNC(=N)N)cc1)C(=O)N1CCOCC1` [Peptide 58, H-D-Phe-D-Phe-D-Nle-D-Gmf-Mor], the Ki [2] is reported as 3010 nM, the “μ/κ Ratio” value [1] is reported as 6,500 and the Ki [1] is reported as 0.46 nM. It also gave a WT-ED50 (conscious male ICR mice) of 0.040 mg/kg.

With “H-D-Phe-D-Phe-D-Nle-D-Arg-NH-4Nhz [Peptide 40]” the “μ/κ Ratio” value [1] was 3,800.

For “H-D-Phe-D-Phe-D-Lcu-D-Dbu-NH(4Pic) [Peptide 52]”, the “μ/κ Ratio” value [1] was 92,000.

`CCCC[C@@H](NC(=O)[C@@H](Cc1ccccc1)NC(=O)[C@H](N)Cc1ccccc1)C(=O)N[C@H](CCCNC(=N)N)C(=O)NCc1ccccc1` [Peptide 14, H-D-Phe-D-Phe-D-Nle-D-Arg-NHBzl] (H-[dF][dF][dNle][dR]-NHBn) was tested, and the Ki [2] was 890 nM, the “μ/κ Ratio” value [1] was 2,000 and the Ki [1] was 0.44 nM. The WT-ED50 (conscious male ICR mice) was 0.14 mg/kg and the “% Antinociception 1 hr” value (conscious male ICR mice) was 36%.

With `CC(C)C[C@@H](NC(=O)[C@@H](Cc1ccc2ccccc2c1)NC(=O)[C@H](N)Cc1cccs1)C(=O)N[C@H](CCCNC(=N)N)C(=O)N1CCOCC1` [Peptide 63, H-D-Ala(2Thi)-D-2Nal-D-Leu-D-Arg-Mor] (H-[d2Thi][d2Nal][dL][dR]-Morpholide) the Ki [2] was 3170 nM, the “μ/κ Ratio” value [1] was 16,000 and the Ki [1] was 0.2 nM. The WT-ED50 (conscious male ICR mice) was 0.04 mg/kg, the “% Antinociception 1 hr” value (conscious male ICR mice) was 51.8% and the “% Antinociception 2 hr” value (conscious male ICR mice) was 36.1%.

`CC(C)C[C@@H](NC(=O)[C@@H](Cc1ccc(Cl)cc1)NC(=O)[C@H](N)Cc1cccs1)C(=O)N[C@H](CCCNC(=N)N)C(=O)NCc1ccncc1` [Peptide 64, H-D-Ala(2Thi)-D-4Cpa-D-Leu-D-Arg-NH(4Pic)] (H-[d2Thi][dPhe(4-Cl)][dL][dR]-{NH(4-picolyl)}) was tested, and the Ki [2] was 2380 nM and the Ki [1] was 0.31 nM.

`CC(C)C[C@@H](NC(=O)[C@@H](Cc1ccc(Cl)cc1)NC(=O)[C@H](N)Cc1ccc(F)cc1)C(=O)N[C@H](CCCNC(=N)N)C(=O)N1CCOCC1` [Peptide 65, H-D-4Fpa-D-4Cpa-D-Leu-D-Arg-Mor] (H-[dPhe(4-F)][dPhe(4-Cl)][dL][dR]-Morpholide) showed a Ki [2] of 1900 nM and a Ki [1] of 0.17 nM.

“H-D-Phe-D-Phe-D-Lcu-D-Lys-Mor [Peptide 49]” was tested, and the “μ/κ Ratio” value [1] was 92,000.

With “H-D-Phe-D-Phe-D-Nle-D-Arg-NH-4-Ahz [Peptide 41]” the “μ/κ Ratio” value [1] was 12,000.

With `CCCC[C@@H](NC(=O)[C@@H](Cc1ccccc1)NC(=O)[C@H](N)Cc1ccccc1)C(=O)N[C@H](CCCNC(=N)N)C(=O)N1CCSCC1` [Peptide 10, H-D-Phe-D-Phe-D-Nle-D-Arg-Tmo] (H-[dF][dF][dNle][dR]-X1) the Ki [2] was 2260 nM, the “μ/κ Ratio” value [1] was 25,000 and the Ki [1] was 0.09 nM. For the same molecule, the WT-ED50 (conscious male ICR mice) was 0.067 mg/kg and 0.07 mg/kg, the “% Antinociception 1 hr” value (conscious male ICR mice) was 81.6% and the “% Antinociception 2 hr” value (conscious male ICR mice) was 47.5%.

With `CC(C)C[C@@H](NC(=O)[C@@H](Cc1ccc(Cl)c(Cl)c1)NC(=O)[C@H](N)Cc1cccs1)C(=O)N[C@H](CCCNC(=N)N)C(=O)NCc1ccncc1` [Peptide 60, H-D-Ala(2Thi)-D-3,4Cpa-D-Leu-D-Arg-NH(4Pic)] (H-[d2Thi][dPhe(3,4-Cl2)][dL][dR]-{NH(4-picolyl)}) the Ki [2] was 769 nM, the “μ/κ Ratio” value [1] was 1,900 and the Ki [1] was 0.4 nM. The WT-ED50 (conscious male ICR mice) was 0.083 mg/kg, the “% Antinociception 1 hr” value (conscious male ICR mice) was 83.8% and the “% Antinociception 2 hr” value (conscious male ICR mice) was 35.5%.

For `CCCC[C@@H](NC(=O)[C@@H](Cc1ccccc1)NC(=O)[C@H](N)Cc1ccccc1)C(=O)N[C@H](CCCNC(=N)N)C(=O)NCc1cccnc1` [Peptide 54, H-D-Phe-D-Phe-D-Nle-D-Arg-NH(3Pic)] (H-[dF][dF][dNle][dR]-{NH(3-picolyl)}), the Ki [2] was 1220 nM, the “μ/κ Ratio” value [1] was 3,100 and the Ki [1] was 0.39 nM.

In the case of `CCCC[C@@H](NC(=O)[C@@H](Cc1ccccc1)NC(=O)[C@H](N)Cc1ccccc1)C(=O)N[C@H](CCCNC(=N)N)C(=O)N1CCCCC1` [Peptide 12, H-D-Phe-D-Phe-D-Nle-D-Arg-Pip] (H-[dF][dF][dNle][dR]-Piperidide), the Ki [2] is reported as 1050 nM, the “μ/κ Ratio” value [1] is reported as 7,000 and the Ki [1] is reported as 0.15 nM. For the same molecule, the WT-ED50 (conscious male ICR mice) was 0.07 mg/kg, the “% Antinociception 1 hr” value (conscious male ICR mice) was 60.5% and the “% Antinociception 2 hr” value (conscious male ICR mice) was 53.6%.

`CCCC[C@@H](NC(=O)[C@@H](Cc1ccccc1)NC(=O)[C@H](N)Cc1ccccc1)C(=O)N[C@H](Cc1ccc(CN)cc1)C(=O)NCC` [Peptide 55, H-D-Phe-D-Phe-D-Nle-D-Amf-NHEt] (H-[dF][dF][dNle][dPhe(4-CH2NH2)]-NHEt) was tested, and the Ki [2] was 1750 nM, the “μ/κ Ratio” value [1] was 12,500 and the Ki [1] was 0.14 nM.

In the case of `CCCC[C@@H](NC(=O)[C@@H](Cc1ccccc1)NC(=O)[C@H](N)Cc1ccccc1)C(=O)N[C@H](CCCNC(=N)N)C(=O)N1CCNCC1` [Peptide 15, H-D-Phe-D-Phe-D-Nle-D-Arg-Ppz] (H-[dF][dF][dNle][dR]-{N(CH2CH2)2NH}), the Ki [2] is reported as 9100 nM, the “μ/κ Ratio” value [1] is reported as 57,000 and the Ki [1] is reported as 0.16 nM. The WT-ED50 (conscious male ICR mice) was 0.017 mg/kg.

With `CC(C)C[C@@H](NC(=O)[C@@H](Cc1ccc(Cl)c(Cl)c1)NC(=O)[C@H](N)Cc1cccs1)C(=O)N[C@H](CCCNC(=N)N)C(=O)N1CCOCC1` [Peptide 61, H-D-Ala(2Thi)-D-3,4Cpa-D-Leu-D-Arg-Mor] (H-[d2Thi][dPhe(3,4-Cl2)][dL][dR]-Morpholide) the Ki [2] was 1560 nM, the “μ/κ Ratio” value [1] was 10,400 and the Ki [1] was 0.15 nM.

For “H-D-CMP-D-Phe-D-Nle-D-Arg-NH(4Pic) [Peptide 43]”, the “μ/κ Ratio” value [1] was 2,500.

`CC(C)C[C@@H](NC(=O)[C@@H](Cc1ccc(Cl)cc1)NC(=O)[C@H](N)Cc1cccs1)C(=O)N[C@H](CCCNC(=N)N)C(=O)N1CCOCC1` [Peptide 59, H-D-Ala(2Thi)-D-4Cpa-D-Leu-D-Arg-Mor] (H-[d2Thi][dPhe(4-Cl)][dL][dR]-Morpholide) was tested, and the Ki [2] was 3360 nM and the Ki [1] was 0.25 nM.

`CC(C)C[C@@H](NC(=O)[C@@H](Cc1ccc2ccccc2c1)NC(=O)[C@H](N)Cc1ccc(F)cc1)C(=O)N[C@H](CCCNC(=N)N)C(=O)N1CCOCC1` [Peptide 62, H-D-4Fpa-D-2Nal-D-Leu-D-Arg-Mor] (H-[dPhe(4-F)][d2Nal][dL][dR]-Morpholide) was tested, and the Ki [2] was 1140 nM, the “μ/κ Ratio” value [1] was 3,500 and the Ki [1] was 0.33 nM.

“H-D-Phe-D-Phe-D-Lcu-D-Lys-NHPr [Peptide 48]” was tested, and the “μ/κ Ratio” value [1] was 18,000.

For “H-D-Phe-D-Phe-D-Acp-D-Arg-NH(4Pic) [Peptide 44]”, the “μ/κ Ratio” value [1] was 8,200.

“H-D-Phe-D-Phe-D-Lcu-D-Dbu-Mor [Peptide 53]” was tested, and the “μ/κ Ratio” value [1] was 85,000.
